# Experimental data from patent US10716830B2, “ERBB4 activator screening assay” (Children's Hospital Los Angeles, priority 2011, dated 2020).
# Legend:
# Type in all cases: cell-based, mouse
# YAMC-B4 cells [1] = assay: EdU proliferation assay; conditions: 24 h stimulation
# Experimental: Proliferative index in fixed colon specimens was assessed by immunohistochemical stain for Ki-67. In vitro, cells were exposed to vehicle or growth factors for 24 h, then labeled with 5-ethynyl-2-deoxyuridine (EdU) for 2 h and fixed. Nuclei were marked with DAPI, and incorporated EdU was detected using a Click-iT EdU kit (Invitrogen).
# Most ErbB ligands stimulate multiple cellular processes, including proliferation and migration, in colon epithelial cells (Frey, M. R., Golovin, A., and Polk, D. B. (2004) J Biol Chem 279, 44513-44521). To determine if NRG4 is similarly broad in its cellular effects, we subjected YAMC-B4 cells to proliferation assays in the presence of NRG4. […] In vivo, the number of Ki67-positive nuclei per crypt in PBS vs. NRG4-injected mice was not altered 24 h post-injection (FIG. 4B).
# [2] = test system: EGFR, ErbB2, ErbB3, and ErbB4; assay: ErbB receptor phosphorylation by western blot with phospho-specific antibodies; conditions: YAMC-B4 cells (human ErbB4 construct); 10 min; HRG-1β 100 ng/ml, NRG4, EGF 10 ng/ml
# Description: Conditionally immortalized, non-transformed young adult mouse colon (YAMC) epithelial cells were provided by Dr. Robert Whitehead (Whitehead, R. H., VanEeden, P. E., Noble, M. D., Ataliotis, P., and Jat, P. S. (1993) Proc Natl Acad Sci USA 90, 587-591). These cells express low levels of endogenous ErbB4; YAMC-B4 cells expressing a human ErbB4 construct were generated as previously described (Frey, M. R., Edelblum, K. L., Mullane, M. T., Liang, D., and Polk, D. B. (2009) Gastroenterology 136, 217-226). […]
# (§1) Cell lysates were extracted in modified RIPA buffer as previously described (Frey, M. R., Dise, R. S., Edelblum, K. L., and Polk, D. B. (2006) Embo J 25, 5683-5692), cleared by centrifugation, and boiled in Laemmli sample buffer. Samples were separated on SDS-polyacrylamide gels (6-10% as appropriate), blotted on PVDF membranes, and subjected to quantitative immunoblot using the Li-Cor Odyssey infrared detection system. Equal loading was monitored by immunoblots for actin and at least one additional protein.
# Phosphorylation of EGFR, ErbB2, ErbB3, and ErbB4 was determined by western blot analysis of cell lysates using phospho-specific antibodies. […]
# COX-2 = COX-2 expression in YAMC-B4 cells; conditions: 6 h exposure
# Experimental: (§2) To identify signaling pathways which could be involved in NRG4-stimulated cell survival, we exposed YAMC-B4 cells to NRG4 or EGF and prepared whole cell lysates for western blot analysis. […] Furthermore, COX-2 expression, which is induced by either HRG-1β or EGF after 6 h exposure, and is required for cell survival induced by ErbB4-EGFR dimers (Frey, M. R., Hilliard, V. C., Mullane, M. T., and Polk, D. B. (2010) Laboratory Investigation 90, 1415-1424), was not induced by NRG4. Thus, NRG4 promotes cell survival through pathways at least partly distinct from those activated by other ligands.
# YAMC-B4 cells [3] = assay: Cell migration/restitution (modified scratch) assay; conditions: 8 h
# Experimental: Cells grown on fibronectin-coated plates were subjected to multiple circular wounds with a rotating silicone probe as previously described (Corredor, J., Yan, F., Shen, C. C., Tong, W., John, S. K., Wilson, G., Whitehead, R., and Polk, D. B. (2003) American journal of physiology. Cell physiology 284, C953-961). Cultures were photographed immediately and 8 h after wounding; % closure was determined by measuring wounds in Image.
# To test the potential effect of NRG4-ErbB4 signaling on cell motility, we used a modified scratch assay for restitution/migration (Corredor, J., Yan, F., Shen, C. C., Tong, W., John, S. K., Wilson, G., Whitehead, R., and Polk, D. B. (2003) American journal of physiology. Cell physiology 284, C953-961). Over an 8 h period, NRG4 had no effect on the rate at which YAMC-B4 cells moved into the denuded area of a culture plate (FIG. 4C), while in contrast EGF caused a 54% increase in migration over control.
# ERK MAPK = ERK MAPK phosphorylation in whole cell lysates by western blot; conditions: YAMC-B4 cells; NRG4 100 ng/ml, 10 min
# Description: as §1, §2
# Akt = Akt phosphorylation in whole cell lysates by western blot; conditions: YAMC-B4 cells; NRG4 100 ng/ml, 10 min
# Description: as §1, §2
substance,measurement,setting,value
"epidermal growth factor (NSYPGCPSSYDGYCLNGGVCMHIESLDSYTCNCVIGYSGDRCQTRDLRWWELR; Epidermal growth factor; UniProt P01132 977-1029, looked up) [EGF, Recombinant murine EGF from Peprotech; positive control for cell stimulation, reference compound]",stimulation of proliferation over control (EdU),YAMC-B4 cells [1],31.5%
same,"phosphorylation of EGFR, ErbB2, ErbB3, and ErbB4",[2],stimulated phosphorylation of multiple ErbBs
same,COX-2 expression,COX-2,induced
same,increase in migration over control,YAMC-B4 cells [3],54%
same,phosphorylation of ERK MAPK,ERK MAPK,activated both cascades
same,phosphorylation of Akt,Akt,activated both cascades
